The results in this text go back to patent US7897750B2, “Strategies for gene expression analysis” (Althea Technologies, Inc., priority 2002, dated 2011).

The experiment deals with HepG2 cells. Nature of the experiment: Multiplex rtPCR gene expression time course (15-plex) in treated cells. It is filed as cell-based. The note with it: 5×10^4 HepG2 cells, 25 μM, timepoints T=0, 2, 4, 8, 24, 48, 120 hours, triplicate, FIG. 9. The method, then:
Cells were treated in triplicate and timepoints were collected at T=0, 2, 4, 8, 24, 48, and 120 hours. RNA was isolated using Qiagen's RNeasy kit for 96 well plates and the concentration was monitored using a Ribogreen Assay (Molecular Probes). The concentration of RNA from each sample was normalized to 5 ng/μl. rtPCR was carried out using 25 ng of RNA from each sample and the products were analyzed using an ABI 3100 Genetic Analyzer. Gene expression is expressed as a ratio to that of GAPDH. The multiplex included the following list of genes.
CV's for all genes and data points within the experiment ranged from a few percent to 20%.

For the compound `CC[C@H]1CN2CCc3cc(OC)c(OC)cc3[C@@H]2C[C@@H]1C[C@H]1NCCc2cc(OC)c(OC)cc21` [emitine], the “GRO1 gene expression, ratio to that of GAPDH” value is given as “clear trends of induction” and the “Il-8 gene expression, ratio to that of GAPDH” value was “clear trends of induction”.
